Measured values taken from the supplement of paper PMC5908809.

Experiments:
[1] = tested on: normal NK cells expanded with K562-aAPC; assay: percent inhibition of viability; higher = more inhibition; conditions: 72 h, IL-2 2.5 ng/mL
Protocol: (§1)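 Drug sensitivity and resistance testing on K562-aAPC-expanded normal NK cells: 5 concentrations (10-fold steps over a 10,000-fold range), 72 h at 37 °C, viability by CellTiter-Glo normalised to DMSO and benzethonium chloride controls; DSS from the fitted curve.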

DERL-7 (IL-2 2.5 ng/mL) [2] = assay: as above; conditions: 72 h
IMC-1 (IL-2 20 ng/mL) [3] = assay: as above; conditions: 72 h
KAI3 (IL-2 2.5 ng/mL) [4] = assay: as above; conditions: 72 h
KHYG-1 (IL-2 2.5 ng/mL) [5] = assay: as above; conditions: 72 h
NK-92 (IL-2 2.5 ng/mL) [6] = assay: as above; conditions: 72 h
NK-YS (IL-2 2.5 ng/mL) [7] = assay: as above; conditions: 72 h
NKL (IL-2 2.5 ng/mL) [8] = assay: as above; conditions: 72 h
SNK-6 (IL-2 2.5 ng/mL) [9] = assay: as above; conditions: 72 h
YT (IL-2 2.5 ng/mL) [10] = assay: as above; conditions: 72 h
[11] = tested on: normal primary NK cells, pool 1 (3 donors) (IL-2 2.5 ng/mL); assay: as above; conditions: 72 h
[12] = tested on: normal primary NK cells, pool 1 (3 donors), resting (IL-2 0 ng/mL); assay: as above; conditions: 72 h
[13] = tested on: normal primary NK cells, pool 2 (3 donors) (IL-2 2.5 ng/mL); assay: as above; conditions: 72 h
[14] = tested on: normal primary NK cells, pool 3 (3 donors) (IL-2 2.5 ng/mL); assay: as above; conditions: 72 h
[15] = tested on: normal NK cells expanded with K562-aAPC; assay: drug sensitivity score (DSS) (DSS units); higher = more sensitive; extreme values may be limits of the assay; conditions: 72 h; IL-2 2.5 ng/mL
Protocol: as §1

DERL-7 (IL-2 2.5 ng/mL) [16] = assay: as above; conditions: 72 h
IMC-1 (IL-2 20 ng/mL) [17] = assay: as above; conditions: 72 h
KAI3 (IL-2 2.5 ng/mL) [18] = assay: as above; conditions: 72 h
KHYG-1 (IL-2 2.5 ng/mL) [19] = assay: as above; conditions: 72 h
NK-92 (IL-2 2.5 ng/mL) [20] = assay: as above; conditions: 72 h
NK-YS (IL-2 2.5 ng/mL) [21] = assay: as above; conditions: 72 h
NKL (IL-2 2.5 ng/mL) [22] = assay: as above; conditions: 72 h
SNK-6 (IL-2 2.5 ng/mL) [23] = assay: as above; conditions: 72 h
YT (IL-2 2.5 ng/mL) [24] = assay: as above; conditions: 72 h
[25] = tested on: normal primary NK cells, pool 1 (3 donors) (IL-2 2.5 ng/mL); assay: as above; conditions: 72 h
[26] = tested on: normal primary NK cells, pool 1 (3 donors), resting (IL-2 0 ng/mL); assay: as above; conditions: 72 h
[27] = tested on: normal primary NK cells, pool 2 (3 donors) (IL-2 2.5 ng/mL); assay: as above; conditions: 72 h
[28] = tested on: normal primary NK cells, pool 3 (3 donors) (IL-2 2.5 ng/mL); assay: as above; conditions: 72 h

O=C(c1ccc(C(=O)N2CCC(N3CCCC3)CC2)c(Nc2ccccc2)c1)N1CCC(N2CCCC2)CC1 [UNC1215] (max concentration tested 30000 nM)
percent inhibition of viability [%]
Conditions	3 nM	30 nM	300 nM	3000 nM	30000 nM
DERL-7 (IL-2 2.5 ng/mL) [2]	-1.53	0.01	3.61	7.89	3.14
IMC-1 (IL-2 20 ng/mL) [3]	-3.72	-5.44	3.3	4.34	14.3
KAI3 (IL-2 2.5 ng/mL) [4]	1.7	4.58	5.63	3.2	16.4
KHYG-1 (IL-2 2.5 ng/mL) [5]	-1.52	-1.25	-0.64	3.44	11.4
NK-92 (IL-2 2.5 ng/mL) [6]	-15.1	-6.53	5.43	7.05	13.6
NK-YS (IL-2 2.5 ng/mL) [7]	-2.93	-6.82	1.29	4.26	12.9
NKL (IL-2 2.5 ng/mL) [8]	-7.8	-11.1	-0.61	-5.87	10.9
SNK-6 (IL-2 2.5 ng/mL) [9]	-4.87	-19.4	0.88	-4.07	-10.5
YT (IL-2 2.5 ng/mL) [10]	-2.24	-2.54	-0.78	1.55	4.57
[1]	3.82	0.21	4.98	5.27	6.03
[11]	-4.87	7.23	-8	1.14	-2.52
[12]	-4.97	4.4	-12.3	-0.15	-14.2
[13]	-8.79	-4.27	-3.06	7.44	11.8
[14]	-6.54	-6.05	-0.93	8.8	12.9

Conditions	drug sensitivity score
DERL-7 (IL-2 2.5 ng/mL) [16]	0
IMC-1 (IL-2 20 ng/mL) [17]	0.31
KAI3 (IL-2 2.5 ng/mL) [18]	0.59
KHYG-1 (IL-2 2.5 ng/mL) [19]	0.12
NK-92 (IL-2 2.5 ng/mL) [20]	0.29
NK-YS (IL-2 2.5 ng/mL) [21]	0.25
NKL (IL-2 2.5 ng/mL) [22]	0
SNK-6 (IL-2 2.5 ng/mL) [23]	0
YT (IL-2 2.5 ng/mL) [24]	0
[15]	0
[25]	0
[26]	0
[27]	0.28
[28]	0.52

CC(C)(O)CC(=O)NCCn1ccc2ncnc(Nc3ccc(Oc4cccc(C(F)(F)F)c4)c(Cl)c3)c21 [TAK-285] (max concentration tested 2500 nM)
percent inhibition of viability [%]
Conditions	0.25 nM	2.5 nM	25 nM	250 nM	2500 nM
DERL-7 (IL-2 2.5 ng/mL) [2]	0.57	-0.5	-0.21	-6.99	3.24
IMC-1 (IL-2 20 ng/mL) [3]	-2.98	-2.02	-5.78	-4.36	-2.28
KAI3 (IL-2 2.5 ng/mL) [4]	3.24	6.26	-7.58	2.41	-4.47
KHYG-1 (IL-2 2.5 ng/mL) [5]	-0.17	-1.01	-1.95	2.13	-6.23
NK-92 (IL-2 2.5 ng/mL) [6]	3.91	-1.52	-0.33	10.9	11.6
NK-YS (IL-2 2.5 ng/mL) [7]	-1.3	-5.16	-2.82	0.41	-0.02
NKL (IL-2 2.5 ng/mL) [8]	-13.2	-11.7	-12.7	-16.1	-29.3
SNK-6 (IL-2 2.5 ng/mL) [9]	5.49	3.7	-2.84	-9.96	-12.5
YT (IL-2 2.5 ng/mL) [10]	0.86	-3.2	0.37	1.42	-3.68
[1]	-3.9	-5.59	-4.49	-4.65	-10.5
[11]	-5.45	-7.93	-3.5	-0.56	2.32
[12]	-19.2	-12	10	5.74	6.13
[13]	-6.38	-6.44	-5.09	-7.05	-6.29
[14]	-5.51	-2.63	-4.05	-8.03	-14.8

Conditions	drug sensitivity score
DERL-7 (IL-2 2.5 ng/mL) [16]	0
IMC-1 (IL-2 20 ng/mL) [17]	0.89
KAI3 (IL-2 2.5 ng/mL) [18]	0
KHYG-1 (IL-2 2.5 ng/mL) [19]	0
NK-92 (IL-2 2.5 ng/mL) [20]	0.37
NK-YS (IL-2 2.5 ng/mL) [21]	0
NKL (IL-2 2.5 ng/mL) [22]	0.89
SNK-6 (IL-2 2.5 ng/mL) [23]	0
YT (IL-2 2.5 ng/mL) [24]	0
[15]	0.89
[25]	0
[26]	0.01
[27]	0.89
[28]	0.89
